Test results reported in patent publication US20160009693A1, “HERBICIDAL COMPOUNDS” (SYNGENTA LIMITED, priority 2013, published 2016).

Experiments:
Type in all cases: in vivo
Conditions in all cases: applied at 1000 g/h, evaluated after 13 days
Setaria faberi (SETFA) [1] = assay: Herbicidal glasshouse test, post-emergence, SETFA
How it was run: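 This post-emergence glasshouse herbicide test used potted Setaria faberi. Plants were cultivated for 8 days under controlled conditions (24/16° C. day/night, 14 hours light, 65% humidity) and then treated with an aqueous spray made from an acetone/water (50:50) solution containing 0.5% Tween 20. After 13 days of further growth with twice-daily watering, damage was rated on a five point scale (5=80-100%; 1=0-19%).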

[2] = test system: Amaranthus retoflexus (AMARE); assay: Herbicidal glasshouse test, post-emergence, AMARE
How it was run: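 This post-emergence glasshouse test used AMARE plants raised in standard soil for 8 days under controlled conditions (24/16° C. day/night, 14 hours light, 65% humidity). Foliage was sprayed with formulated compound in acetone/water (50:50) containing 0.5% Tween 20. Plants were then watered twice daily, and after 13 days percentage damage was rated on a five point scale.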

[3] = test system: Alopecurus myosuroides (ALOMY); assay: Herbicidal glasshouse test, post-emergence, ALOMY
[4] = test system: Echinochloa crus-galli (ECHCG); assay: Herbicidal glasshouse test, post-emergence, ECHCG
How it was run: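 In this post-emergence glasshouse test, barnyard grass (ECHCG) was cultivated for 8 days under controlled conditions (24/16° C. day/night, 14 hours light, 65% humidity). It was then sprayed with an aqueous solution of the technical compound in acetone / water (50:50) with 0.5% Tween 20. Plants were kept under the same conditions and watered twice daily. After 13 days, percentage damage was rated on a five point scale (5=80-100%; 1=0-19%).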

[5] = test system: Echinochloa crus-galli (ECHCG); assay: Herbicidal glasshouse test, pre-emergence, ECHCG
How it was run: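 In this pre-emergence glasshouse test, ECHCG seeds sown in pots of standard soil were sprayed one day after sowing with the test material in acetone/water (50:50) containing 0.5% Tween 20. Plants were kept at 24/16° C., 14 hours light, 65% humidity, and watered twice daily. Percentage damage was rated after 13 days on a 1–5 scale.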

[6] = test system: Ipomoea hederacea (IPOHE); assay: Herbicidal glasshouse test, post-emergence, IPOHE
Setaria faberi (SETFA) [7] = assay: Herbicidal glasshouse test, pre-emergence, SETFA
[8] = test system: Alopecurus myosuroides (ALOMY); assay: Herbicidal glasshouse test, pre-emergence, ALOMY
[9] = test system: Ipomoea hederacea (IPOHE); assay: Herbicidal glasshouse test, pre-emergence, IPOHE
Solanum nigrum (SOLNI) [10] = assay: Herbicidal glasshouse test, pre-emergence, SOLNI
How it was run: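 This pre-emergence glasshouse herbicide test used Solanum nigrum sown in standard soil. One day after sowing, pots were sprayed with the compound in acetone/water (50:50) with 0.5% Tween 20. They were then grown at 24/16° C., with 14 hours light and 65% humidity, and watered twice daily. Percentage damage was scored after 13 days on a five point scale, where 5=80-100% and 1=0-19%.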

[11] = test system: Amaranthus retoflexus (AMARE); assay: Herbicidal glasshouse test, pre-emergence, AMARE
How it was run: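 This pre-emergence glasshouse herbicide test used Amaranthus retoflexus sown in standard soil. After one day of cultivation, an aqueous spray made from the technical ingredient in 50:50 acetone/water with 0.5% Tween 20 was applied. Pots stayed at 24/16° C., 14 hours light, 65% humidity, with twice-daily watering. Damage was rated on a five point scale (1=0-19% up to 5=80-100%).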

Solanum nigrum (SOLNI) [12] = assay: Herbicidal glasshouse test, post-emergence, SOLNI

Row | SMILES | POST Application SETFA, percentage damage (five point scale) (Setaria faberi (SETFA) [1]) | POST Application AMARE, percentage damage (five point scale) [2] | POST Application ALOMY, percentage damage (five point scale) [3] | POST Application ECHCG, percentage damage (five point scale) [4] | PRE Application ECHCG, percentage damage (five point scale) [5] | POST Application IPOHE, percentage damage (five point scale) [6] | PRE Application SETFA, percentage damage (five point scale) (Setaria faberi (SETFA) [7]) | PRE Application ALOMY, percentage damage (five point scale) [8] | PRE Application IPOHE, percentage damage (five point scale) [9] | PRE Application SOLNI, percentage damage (five point scale) (Solanum nigrum (SOLNI) [10]) | PRE Application AMARE, percentage damage (five point scale) [11] | POST Application SOLNI, percentage damage (five point scale) (Solanum nigrum (SOLNI) [12])
1 | Cn1nnnc1NC(=O)c1nn(C)c(=O)n(CC2CC2)c1=O [Compound 1.093] | 5 (5=80-100%) | 5 (5=80-100%) | 5 (5=80-100%) | 5 (5=80-100%) | 5 (5=80-100%) | 5 (5=80-100%) | 5 (5=80-100%) | 5 (5=80-100%) | 5 (5=80-100%) | 5 (5=80-100%) | 5 (5=80-100%) | 5 (5=80-100%)
2 | Cc1cccc(-n2c(=O)c(C(=O)Nc3nnnn3C)nn(C)c2=O)c1 [Compound 1.025] | 5 (5=80-100%) | 5 (5=80-100%) | 5 (5=80-100%) | 5 (5=80-100%) | 5 (5=80-100%) | 5 (5=80-100%) | 5 (5=80-100%) | 5 (5=80-100%) | 5 (5=80-100%) | 5 (5=80-100%) | 5 (5=80-100%) | 5 (5=80-100%)
3 | Cn1nnnc1NC(=O)c1nn(C)c(=O)n(-c2ccc(OC(F)(F)F)c(F)c2)c1=O [Compound 1.029] | 5 (5=80-100%) | 5 (5=80-100%) | 5 (5=80-100%) | 5 (5=80-100%) | 5 (5=80-100%) | 5 (5=80-100%) | 5 (5=80-100%) | 5 (5=80-100%) | 5 (5=80-100%) | 5 (5=80-100%) | 5 (5=80-100%) | 5 (5=80-100%)
4 | Cc1ccc(Cl)cc1-n1c(=O)c(C(=O)Nc2nnnn2C)nn(C)c1=O [Compound 1.016] | 5 (5=80-100%) | 5 (5=80-100%) | 5 (5=80-100%) | 5 (5=80-100%) | 5 (5=80-100%) | 5 (5=80-100%) | 5 (5=80-100%) | 5 (5=80-100%) | 5 (5=80-100%) | 5 (5=80-100%) | 5 (5=80-100%) | 5 (5=80-100%)
5 | Cn1nnnc1NC(=O)c1nn(C)c(=O)n(-c2ccc(F)cc2Cl)c1=O [Compound 1.021] | 5 (5=80-100%) | 5 (5=80-100%) | 5 (5=80-100%) | 5 (5=80-100%) | 5 (5=80-100%) | 5 (5=80-100%) | 5 (5=80-100%) | 5 (5=80-100%) | 5 (5=80-100%) | 5 (5=80-100%) | 5 (5=80-100%) | 5 (5=80-100%)
6 | COc1ccc([N+](=O)[O-])cc1Cn1c(=O)c(C(=O)Nc2nnnn2C)nn(C)c1=O [Compound 1.081] | 4 (4=60-79%) | 5 (5=80-100%) | 5 (5=80-100%) | 4 (4=60-79%) | 5 (5=80-100%) | 5 (5=80-100%) | 2 (2=20-39%) | 5 (5=80-100%) | 5 (5=80-100%) | 5 (5=80-100%) | 5 (5=80-100%) | 5 (5=80-100%)
7 | CCOc1cccc(-n2c(=O)c(C(=O)Nc3nnnn3C)nn(C)c2=O)c1 [Compound 1.034] | 5 (5=80-100%) | 5 (5=80-100%) | 5 (5=80-100%) | 5 (5=80-100%) | 5 (5=80-100%) | 5 (5=80-100%) | 5 (5=80-100%) | 5 (5=80-100%) | 5 (5=80-100%) | 5 (5=80-100%) | 5 (5=80-100%) | 5 (5=80-100%)
